Test results reported in ChEMBL document CHEMBL3991601, “The target landscape of clinical kinase drugs” (Science, 2017).
Calls of active or inactive are those of the source. For most assays here, no stated cut-off is given here; in the data, actives have a measured Kd and inactives only a lower limit.

Assays:
[1] = target: T1, Interleukin-1 receptor-associated kinase 4 (Homo sapiens, UniProt Q9NWZ3)
T1 sequence (Q9NWZ3 whole entry): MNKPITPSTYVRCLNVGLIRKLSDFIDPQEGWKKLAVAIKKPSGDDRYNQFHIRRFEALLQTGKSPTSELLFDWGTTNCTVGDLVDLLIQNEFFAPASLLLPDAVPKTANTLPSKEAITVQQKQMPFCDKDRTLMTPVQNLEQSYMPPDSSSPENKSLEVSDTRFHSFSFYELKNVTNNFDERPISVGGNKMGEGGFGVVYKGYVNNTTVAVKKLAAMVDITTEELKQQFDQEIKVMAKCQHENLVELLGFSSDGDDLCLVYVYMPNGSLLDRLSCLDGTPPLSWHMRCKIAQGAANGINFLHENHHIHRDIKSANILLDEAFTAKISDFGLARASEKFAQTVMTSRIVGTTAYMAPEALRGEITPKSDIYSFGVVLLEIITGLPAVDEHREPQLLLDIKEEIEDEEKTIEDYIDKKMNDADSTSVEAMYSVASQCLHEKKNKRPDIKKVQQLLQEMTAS

[2] = target: T2, ATP-dependent RNA helicase DDX1 (Homo sapiens, UniProt Q92499)
T2 sequence (Q92499 whole entry): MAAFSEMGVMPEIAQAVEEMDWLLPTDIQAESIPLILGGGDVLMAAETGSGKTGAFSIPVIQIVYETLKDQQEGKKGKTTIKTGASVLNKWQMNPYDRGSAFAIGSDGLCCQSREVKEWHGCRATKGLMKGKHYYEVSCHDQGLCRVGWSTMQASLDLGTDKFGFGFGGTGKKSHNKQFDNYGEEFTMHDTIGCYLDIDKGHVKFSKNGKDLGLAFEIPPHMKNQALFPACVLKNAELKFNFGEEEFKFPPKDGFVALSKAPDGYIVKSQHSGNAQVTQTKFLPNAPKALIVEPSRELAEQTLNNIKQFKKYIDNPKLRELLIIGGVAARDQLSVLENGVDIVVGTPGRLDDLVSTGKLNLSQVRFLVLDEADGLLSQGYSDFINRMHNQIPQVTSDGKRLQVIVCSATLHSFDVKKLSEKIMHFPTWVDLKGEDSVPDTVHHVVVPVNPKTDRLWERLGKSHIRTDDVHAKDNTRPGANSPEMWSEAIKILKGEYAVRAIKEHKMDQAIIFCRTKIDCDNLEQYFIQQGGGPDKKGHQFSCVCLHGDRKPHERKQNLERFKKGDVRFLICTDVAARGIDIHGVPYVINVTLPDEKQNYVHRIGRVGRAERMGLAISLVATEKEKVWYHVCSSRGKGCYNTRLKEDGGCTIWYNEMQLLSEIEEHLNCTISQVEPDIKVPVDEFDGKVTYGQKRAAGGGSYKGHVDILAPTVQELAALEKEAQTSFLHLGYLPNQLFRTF

[3] = target: Wee1-like protein kinase (Homo sapiens, UniProt P30291)
Chain of Wee1-like protein kinase (P30291 whole entry): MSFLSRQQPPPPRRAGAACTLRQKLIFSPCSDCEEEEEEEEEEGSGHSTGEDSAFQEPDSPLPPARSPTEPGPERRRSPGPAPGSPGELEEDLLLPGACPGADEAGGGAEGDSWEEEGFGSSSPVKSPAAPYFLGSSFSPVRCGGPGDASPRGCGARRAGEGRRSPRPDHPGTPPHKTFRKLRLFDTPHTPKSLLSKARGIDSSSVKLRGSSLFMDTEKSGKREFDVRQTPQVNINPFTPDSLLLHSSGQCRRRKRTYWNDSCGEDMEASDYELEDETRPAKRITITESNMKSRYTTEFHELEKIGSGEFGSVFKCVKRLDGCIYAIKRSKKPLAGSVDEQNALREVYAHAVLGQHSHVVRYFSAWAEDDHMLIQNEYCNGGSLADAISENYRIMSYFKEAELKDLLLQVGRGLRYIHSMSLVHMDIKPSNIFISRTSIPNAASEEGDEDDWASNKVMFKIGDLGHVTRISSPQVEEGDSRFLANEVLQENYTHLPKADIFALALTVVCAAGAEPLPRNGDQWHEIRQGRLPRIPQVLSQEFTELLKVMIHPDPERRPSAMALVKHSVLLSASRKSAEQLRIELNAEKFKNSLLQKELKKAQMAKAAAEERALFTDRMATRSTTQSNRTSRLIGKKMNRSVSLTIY

[4] = target: Serine/threonine-protein kinase 10 (Homo sapiens, UniProt O94804)
Chain of Serine/threonine-protein kinase 10 (O94804 whole entry): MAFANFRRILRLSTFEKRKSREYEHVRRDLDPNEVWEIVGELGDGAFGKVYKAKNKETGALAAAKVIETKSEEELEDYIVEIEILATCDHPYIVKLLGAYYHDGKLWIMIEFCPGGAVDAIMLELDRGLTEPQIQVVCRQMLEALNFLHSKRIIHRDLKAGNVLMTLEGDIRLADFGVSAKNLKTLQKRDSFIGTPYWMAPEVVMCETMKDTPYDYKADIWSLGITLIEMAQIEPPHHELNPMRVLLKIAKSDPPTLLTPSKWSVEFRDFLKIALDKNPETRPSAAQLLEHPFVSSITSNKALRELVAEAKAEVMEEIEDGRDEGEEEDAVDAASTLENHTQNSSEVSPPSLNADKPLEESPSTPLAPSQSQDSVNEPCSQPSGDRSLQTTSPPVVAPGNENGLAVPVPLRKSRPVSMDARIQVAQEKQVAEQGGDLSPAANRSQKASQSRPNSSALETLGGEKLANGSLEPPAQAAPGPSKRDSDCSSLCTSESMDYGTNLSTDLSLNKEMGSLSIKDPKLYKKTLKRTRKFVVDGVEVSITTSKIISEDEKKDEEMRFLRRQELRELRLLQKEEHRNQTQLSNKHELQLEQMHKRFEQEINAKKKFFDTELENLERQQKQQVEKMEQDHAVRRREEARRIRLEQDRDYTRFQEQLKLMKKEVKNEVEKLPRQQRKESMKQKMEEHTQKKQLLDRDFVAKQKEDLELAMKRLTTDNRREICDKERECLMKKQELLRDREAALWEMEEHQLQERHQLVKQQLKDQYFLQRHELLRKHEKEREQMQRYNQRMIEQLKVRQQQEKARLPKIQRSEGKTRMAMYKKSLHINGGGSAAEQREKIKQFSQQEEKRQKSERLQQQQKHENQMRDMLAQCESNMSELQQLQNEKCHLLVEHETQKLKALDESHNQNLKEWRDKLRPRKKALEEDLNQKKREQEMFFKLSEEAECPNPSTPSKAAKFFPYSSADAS

[5] = target: Cyclin-dependent kinase 7 (Homo sapiens, UniProt P50613)
Chain of Cyclin-dependent kinase 7 (P50613 whole entry): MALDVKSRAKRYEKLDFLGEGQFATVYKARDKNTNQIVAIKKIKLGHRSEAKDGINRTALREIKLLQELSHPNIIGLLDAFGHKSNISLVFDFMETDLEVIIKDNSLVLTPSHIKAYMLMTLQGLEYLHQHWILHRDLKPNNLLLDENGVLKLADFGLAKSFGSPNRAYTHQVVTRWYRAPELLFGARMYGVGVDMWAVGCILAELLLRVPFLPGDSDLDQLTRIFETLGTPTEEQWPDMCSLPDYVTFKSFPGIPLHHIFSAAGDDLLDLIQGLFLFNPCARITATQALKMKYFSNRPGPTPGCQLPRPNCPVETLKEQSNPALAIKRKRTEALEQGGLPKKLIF

[6] = target: T3, Serine/threonine-protein kinase Nek3 (Homo sapiens, UniProt P51956)
T3 sequence (P51956 whole entry): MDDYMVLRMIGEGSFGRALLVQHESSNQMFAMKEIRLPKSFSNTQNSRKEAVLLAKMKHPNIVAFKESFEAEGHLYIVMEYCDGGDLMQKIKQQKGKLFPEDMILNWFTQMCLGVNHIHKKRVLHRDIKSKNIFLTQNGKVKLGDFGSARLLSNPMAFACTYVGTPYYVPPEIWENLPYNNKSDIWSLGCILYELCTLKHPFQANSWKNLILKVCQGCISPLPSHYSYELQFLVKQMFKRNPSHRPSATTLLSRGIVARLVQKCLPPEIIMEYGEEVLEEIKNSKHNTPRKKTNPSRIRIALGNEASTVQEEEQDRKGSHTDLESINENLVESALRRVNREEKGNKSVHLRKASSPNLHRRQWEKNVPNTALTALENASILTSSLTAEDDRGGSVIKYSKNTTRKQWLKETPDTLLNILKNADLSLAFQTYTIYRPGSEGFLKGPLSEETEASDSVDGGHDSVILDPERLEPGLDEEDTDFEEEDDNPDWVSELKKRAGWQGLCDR

[7] = target: T4, Scaffold protein ILK (Homo sapiens, UniProt Q13418)
T4 sequence (Q13418 whole entry): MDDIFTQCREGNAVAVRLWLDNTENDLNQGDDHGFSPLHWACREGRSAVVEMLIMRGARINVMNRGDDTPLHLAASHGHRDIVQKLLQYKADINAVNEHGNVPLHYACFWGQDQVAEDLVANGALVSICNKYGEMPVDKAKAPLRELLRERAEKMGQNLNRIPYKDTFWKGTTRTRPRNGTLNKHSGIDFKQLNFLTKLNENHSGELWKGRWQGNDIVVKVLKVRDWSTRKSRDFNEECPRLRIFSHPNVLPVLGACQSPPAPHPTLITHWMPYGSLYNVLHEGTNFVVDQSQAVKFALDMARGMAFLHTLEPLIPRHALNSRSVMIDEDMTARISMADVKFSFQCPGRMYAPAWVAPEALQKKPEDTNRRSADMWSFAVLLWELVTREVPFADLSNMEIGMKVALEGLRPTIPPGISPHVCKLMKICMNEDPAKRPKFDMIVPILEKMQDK

[8] = target: Ephrin type-A receptor 4 (Homo sapiens, UniProt P54764)
Chain of Ephrin type-A receptor 4 (P54764 whole entry): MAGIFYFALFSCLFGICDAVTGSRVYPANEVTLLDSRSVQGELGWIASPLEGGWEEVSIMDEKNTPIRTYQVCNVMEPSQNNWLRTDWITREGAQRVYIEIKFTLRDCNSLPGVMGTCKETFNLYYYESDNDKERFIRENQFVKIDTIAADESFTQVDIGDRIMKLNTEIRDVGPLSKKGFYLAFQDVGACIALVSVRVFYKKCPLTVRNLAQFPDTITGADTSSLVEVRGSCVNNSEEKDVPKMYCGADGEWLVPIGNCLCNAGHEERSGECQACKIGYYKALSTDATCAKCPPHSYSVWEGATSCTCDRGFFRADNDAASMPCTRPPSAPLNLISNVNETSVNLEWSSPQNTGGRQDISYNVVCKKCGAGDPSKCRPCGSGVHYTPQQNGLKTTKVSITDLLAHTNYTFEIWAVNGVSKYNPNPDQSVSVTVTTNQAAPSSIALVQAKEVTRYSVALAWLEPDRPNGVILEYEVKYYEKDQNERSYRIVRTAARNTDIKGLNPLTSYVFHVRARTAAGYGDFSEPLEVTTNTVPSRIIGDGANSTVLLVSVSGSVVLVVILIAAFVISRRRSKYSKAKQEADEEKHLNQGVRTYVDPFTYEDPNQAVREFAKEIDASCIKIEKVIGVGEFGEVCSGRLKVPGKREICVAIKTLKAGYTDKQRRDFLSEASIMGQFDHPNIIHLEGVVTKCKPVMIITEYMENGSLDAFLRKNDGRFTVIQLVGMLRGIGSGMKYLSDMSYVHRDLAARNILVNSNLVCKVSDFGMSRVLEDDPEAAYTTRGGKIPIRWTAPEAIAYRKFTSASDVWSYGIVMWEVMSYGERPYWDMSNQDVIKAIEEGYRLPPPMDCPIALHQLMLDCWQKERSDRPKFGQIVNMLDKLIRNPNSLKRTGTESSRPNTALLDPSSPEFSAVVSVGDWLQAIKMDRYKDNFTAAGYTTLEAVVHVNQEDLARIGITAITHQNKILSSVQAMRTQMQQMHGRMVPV

[9] = target: T5, Pyridoxal kinase (Homo sapiens, UniProt O00764)
T5 sequence (O00764 whole entry): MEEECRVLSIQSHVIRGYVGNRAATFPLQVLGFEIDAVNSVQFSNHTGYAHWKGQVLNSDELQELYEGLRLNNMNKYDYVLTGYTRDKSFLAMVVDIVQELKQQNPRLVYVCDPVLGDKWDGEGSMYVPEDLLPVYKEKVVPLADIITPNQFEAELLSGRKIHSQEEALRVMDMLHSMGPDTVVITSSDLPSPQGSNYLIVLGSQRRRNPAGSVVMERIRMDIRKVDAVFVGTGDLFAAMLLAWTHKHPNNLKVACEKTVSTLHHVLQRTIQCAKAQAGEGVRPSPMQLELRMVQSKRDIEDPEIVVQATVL

| Compound | Kd [1] | Kd [2] | Kd [3] | Kd [4] | Kd [5] | Kd [6] | Kd [7] | Kd [8] | Kd [9] |
| --- | --- | --- | --- | --- | --- | --- | --- | --- | --- |
| O=C(O)[C@]1(Cc2cccc(Nc3nccs3)n2)CC[C@@H](Oc2cccc(Cl)c2F)CC1 [MK-5108] | > 30 µM (inactive) | > 30 µM (inactive) | > 30 µM (inactive) | 1.09 µM (active) | > 30 µM (inactive) | > 30 µM (inactive) | > 30 µM (inactive) | > 30 µM (inactive) | > 30 µM (inactive) |
| N[C@@H]1CCCN(c2c(/C=C3\SC(=O)NC3=O)cccc2-c2ccccc2)C1 | > 30 µM (inactive) | > 30 µM (inactive) | > 30 µM (inactive) | > 30 µM (inactive) | > 30 µM (inactive) | > 30 µM (inactive) | > 30 µM (inactive) | > 30 µM (inactive) | > 30 µM (inactive) |
| Cc1ccc(NC(=O)c2ccc(CN3CC[C@H](N(C)C)C3)c(C(F)(F)F)c2)cc1Nc1nccc(-c2cncnc2)n1 [BAFETINIB] | > 30 µM (inactive) | > 30 µM (inactive) | > 30 µM (inactive) | > 30 µM (inactive) | > 30 µM (inactive) | > 30 µM (inactive) | > 30 µM (inactive) | 1.98 µM (active) | > 30 µM (inactive) |
| O=C(Nc1ccc(-c2ccnc(Nc3ccc(N4CCOCC4)cc3)n2)cc1)C1CCCN1 (stereo unspecified) [XL-019] | > 30 µM (inactive) | > 30 µM (inactive) | > 30 µM (inactive) | > 30 µM (inactive) | > 30 µM (inactive) | 0.353 µM (active) | > 30 µM (inactive) | > 30 µM (inactive) | > 30 µM (inactive) |
| O=C(c1ccc(F)c(F)c1Nc1ccc(I)cc1F)N1CC(O)([C@@H]2CCCCN2)C1 [COBIMETINIB] | > 30 µM (inactive) | > 30 µM (inactive) | > 30 µM (inactive) | > 30 µM (inactive) | > 30 µM (inactive) | > 30 µM (inactive) | > 30 µM (inactive) | > 30 µM (inactive) | > 30 µM (inactive) |
| C[C@@H]1CN(Cc2ccc(F)cc2)[C@@H](C)CN1C(=O)c1cc2c(C(=O)C(=O)N(C)C)cn(C)c2cc1Cl [TALMAPIMOD] | > 30 µM (inactive) | > 30 µM (inactive) | > 30 µM (inactive) | > 30 µM (inactive) | > 30 µM (inactive) | > 30 µM (inactive) | > 30 µM (inactive) | > 30 µM (inactive) | > 30 µM (inactive) |
| Cc1cc(-c2cc(O)ccc2Cl)cc2nnc(Nc3ccc(OCCN4CCCC4)cc3)nc12 | > 30 µM (inactive) | > 30 µM (inactive) | > 30 µM (inactive) | > 30 µM (inactive) | > 30 µM (inactive) | > 30 µM (inactive) | > 30 µM (inactive) | 0.002 µM (active) | > 30 µM (inactive) |
| COc1cc(CCc2cc(NC(=O)c3ccc(N4C[C@@H](C)N[C@@H](C)C4)cc3)n[nH]2)cc(OC)c1 [AZD-4547] | > 30 µM (inactive) | > 30 µM (inactive) | > 30 µM (inactive) | > 30 µM (inactive) | > 30 µM (inactive) | > 30 µM (inactive) | > 30 µM (inactive) | > 30 µM (inactive) | > 30 µM (inactive) |
| Cc1cc([C@@H](C)Nc2ccccc2C(=O)O)c2nc(N3CCOCC3)cc(=O)n2c1 [AZD-6482] | > 30 µM (inactive) | > 30 µM (inactive) | > 30 µM (inactive) | > 30 µM (inactive) | > 30 µM (inactive) | > 30 µM (inactive) | > 30 µM (inactive) | > 30 µM (inactive) | > 30 µM (inactive) |
